Experiments:
[1] = biological target: T1, Peroxisome proliferator-activated receptor alpha (Homo sapiens, UniProt Q07869); test: In vitro potency of PPAR gene activation against human Peroxisome proliferator activated receptor alpha using chimeric Gal4-hPPAR transactivation assay (TA)
T1 sequence (Q07869 whole entry): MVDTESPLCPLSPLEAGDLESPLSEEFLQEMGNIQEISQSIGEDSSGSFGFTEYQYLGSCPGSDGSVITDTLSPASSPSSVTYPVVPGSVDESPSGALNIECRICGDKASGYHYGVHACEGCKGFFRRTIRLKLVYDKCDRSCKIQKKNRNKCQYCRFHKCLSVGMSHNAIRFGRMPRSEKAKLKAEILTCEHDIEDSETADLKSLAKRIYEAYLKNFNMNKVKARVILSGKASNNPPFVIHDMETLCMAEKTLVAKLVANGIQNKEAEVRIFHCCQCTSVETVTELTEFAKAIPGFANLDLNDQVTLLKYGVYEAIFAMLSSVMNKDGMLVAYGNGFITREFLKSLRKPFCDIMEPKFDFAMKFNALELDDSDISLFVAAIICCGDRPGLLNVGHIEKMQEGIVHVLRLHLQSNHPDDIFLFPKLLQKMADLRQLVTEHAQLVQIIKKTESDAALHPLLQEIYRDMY

[2] = biological target: T2, Peroxisome proliferator-activated receptor delta (Homo sapiens, UniProt Q03181)
T2 sequence (Q03181 whole entry): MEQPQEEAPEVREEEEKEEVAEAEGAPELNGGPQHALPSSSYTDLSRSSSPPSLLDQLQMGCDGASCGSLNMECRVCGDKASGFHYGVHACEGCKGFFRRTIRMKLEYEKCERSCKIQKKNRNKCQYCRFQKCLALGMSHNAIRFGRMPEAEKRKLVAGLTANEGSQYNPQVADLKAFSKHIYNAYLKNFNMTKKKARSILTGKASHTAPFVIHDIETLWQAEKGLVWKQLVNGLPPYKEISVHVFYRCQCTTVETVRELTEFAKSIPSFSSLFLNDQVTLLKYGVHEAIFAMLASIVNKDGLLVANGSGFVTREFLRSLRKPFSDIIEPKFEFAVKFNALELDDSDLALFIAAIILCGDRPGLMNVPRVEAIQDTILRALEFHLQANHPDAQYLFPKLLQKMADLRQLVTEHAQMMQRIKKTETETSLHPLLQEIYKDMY

[3] = biological target: T3, Peroxisome proliferator-activated receptor gamma (Homo sapiens, UniProt P37231); test: In vitro binding affinity for human peroxisome proliferator activated receptor gamma using scintillation proximity assay (SPA)
T3 sequence (P37231 whole entry): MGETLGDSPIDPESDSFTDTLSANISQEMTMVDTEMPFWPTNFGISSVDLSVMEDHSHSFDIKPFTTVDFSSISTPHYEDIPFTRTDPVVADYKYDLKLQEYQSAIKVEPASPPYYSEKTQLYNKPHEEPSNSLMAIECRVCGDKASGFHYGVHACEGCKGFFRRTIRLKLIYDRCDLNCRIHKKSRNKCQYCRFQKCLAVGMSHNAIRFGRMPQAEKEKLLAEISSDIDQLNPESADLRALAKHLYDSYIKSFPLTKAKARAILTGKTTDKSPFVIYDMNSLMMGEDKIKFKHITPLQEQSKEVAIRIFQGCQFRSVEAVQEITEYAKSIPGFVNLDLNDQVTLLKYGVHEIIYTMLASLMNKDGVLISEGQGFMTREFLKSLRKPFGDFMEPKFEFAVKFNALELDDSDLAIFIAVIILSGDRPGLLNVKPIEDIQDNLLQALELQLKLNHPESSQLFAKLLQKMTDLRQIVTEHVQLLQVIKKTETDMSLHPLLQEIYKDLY

[4] = biological target: T1, Peroxisome proliferator-activated receptor alpha
Description: In vitro binding affinity for human peroxisome proliferator activated receptor alpha using scintillation proximity assay (SPA)

[5] = biological target: T3, Peroxisome proliferator-activated receptor gamma
Description: In vitro potency of PPAR gene activation against human PPAR gamma receptor using chimeric Gal4-hPPAR transactivation assay (TA)

[6] = test system: Cricetinae gen. sp.; test: In vivo serum cholesterol in hamsters at 100 mg/kg; format: functional, Cricetulus griseus
[7] = test system: Cricetinae gen. sp.; test: In vivo percent change in serum cholesterol in hamsters at 100 mg/kg; format: functional, Cricetulus griseus
[8] = test system: Canis familiaris; test: In vivo percent change in serum cholesterol in dogs at 50 mg/kg; format: functional, Canis lupus familiaris
[9] = test system: Cricetinae gen. sp.; test: In vivo percent change in triglyceride in hamsters at 100 mg/kg; format: functional, Cricetulus griseus
[10] = biological target: T1, Peroxisome proliferator-activated receptor alpha; test: In vitro transcriptional activation by human PPAR alpha Gal4 chimera; Not active
[11] = biological target: T3, Peroxisome proliferator-activated receptor gamma; test: In vitro transcriptional activation by human PPAR gamma Gal4 chimera
[12] = biological target: T3, Peroxisome proliferator-activated receptor gamma; remark: listed apart in the source
Description: In vitro binding affinity for human PPAR gamma receptor using scintillation proximity assay (SPA)

| Structure (SMILES) | EC50 [1] [nM] | IC50 [2] [nM] | IC50 [3] [nM] | IC50 [4] [nM] | EC50 [5] [nM] | EC50 [11] [nM] | IC50 [12] [nM] | Activity [6] [mg/dL] | Change [7] [%] | Change [8] [%] | Change [9] [%] | EC50 [10] |
| --- | --- | --- | --- | --- | --- | --- | --- | --- | --- | --- | --- | --- |
| CC(C)OC(=O)C(C)(C)Oc1ccc(C(=O)c2ccc(Cl)cc2)cc1 [FENOFIBRATE] | – | – | – | – | – | – | – | 67 | -38 | -16.3 | -44 | – |
| CCCc1cc(Oc2ccccc2)ccc1OCCCCOc1ccc2c(c1)OC(C)(C(=O)O)CC2 (centres undefined) | 5200 | > 50000 | 5100 | > 15000 | 3600 | – | – | – | – | – | – | – |
| CCCc1cc(Oc2ccc(Cl)cc2)ccc1OCCCOc1ccc2c(c1)OC(CC)(C(=O)O)CC2 (centres undefined) | 210 | > 50000 | 1400 | 4000 | 670 | – | – | – | – | – | – | – |
| CCCc1cc(Oc2ccccc2)ccc1OCCCOc1ccc2c(c1)CCC(C)(C(=O)O)O2 (centres undefined) | – | > 50000 | 1700 | 3300 | 6800 | – | – | – | – | – | – | Not Active |
| CCCc1cc(Oc2ccccc2)ccc1OCCCOc1ccc2c(c1)OC(CCC)(C(=O)O)CC2 (centres undefined) | 120 | > 50000 | 370 | 2100 | 830 | – | – | – | – | – | – | – |
| CCCc1cc(Oc2ccccc2)ccc1OCCCCOc1ccc2c(c1)CCC(C(=O)O)O2 (centres undefined) | – | > 50000 | 3000 | 5800 | 2500 | – | – | – | – | – | – | Not Active |
| CCCc1cc(Oc2ccc(OC)cc2)ccc1OCCCOc1ccc2c(c1)OC(CC)(C(=O)O)CC2 (centres undefined) | 4600 | > 50000 | 630 | > 15000 | 890 | – | – | – | – | – | – | – |

Further compounds by falling EC50 [1], results first:

| EC50 [1] [nM] | IC50 [2] [nM] | IC50 [3] [nM] | IC50 [4] [nM] | EC50 [5] [nM] | EC50 [11] [nM] | IC50 [12] [nM] | Structure (SMILES) | Activity [6] [mg/dL] | Change [7] [%] | Change [8] [%] | Change [9] [%] | EC50 [10] |
| --- | --- | --- | --- | --- | --- | --- | --- | --- | --- | --- | --- | --- |
| 50 | > 50000 | 4700 | 370 | – | 1000 | – | CCC1(C(=O)O)CCc2ccc(OCCCOc3ccc(Oc4ccccc4)cc3F)cc2O1 (centres undefined) | – | – | – | – | – |
| 30 | > 50000 | 440 | 360 | 1000 | – | – | CCCc1cc(Oc2ccccc2)ccc1OCCCOc1ccc2c(c1)OC(CC)(C(=O)O)CC2 (centres undefined) | – | – | – | – | – |
| 30 | > 15000 | – | 120 | 160 | – | 690 | CCC1(C(=O)O)CCc2ccc(OCCCOc3ccc(Oc4ccccc4)cc3Cl)cc2O1 (centres undefined) | – | – | – | – | – |
| 10 | > 50000 | 1200 | 970 | 750 | – | – | CCCc1cc(Oc2ccc(F)cc2)ccc1OCCCOc1ccc2c(c1)OC(CC)(C(=O)O)CC2 (centres undefined) | – | – | – | – | – |
